Bounds are passed on as bounds.

The target of data set [1] is T1, Farnesyl pyrophosphate synthase (Homo sapiens, UniProt P14324).
T1 sequence (P14324 whole entry): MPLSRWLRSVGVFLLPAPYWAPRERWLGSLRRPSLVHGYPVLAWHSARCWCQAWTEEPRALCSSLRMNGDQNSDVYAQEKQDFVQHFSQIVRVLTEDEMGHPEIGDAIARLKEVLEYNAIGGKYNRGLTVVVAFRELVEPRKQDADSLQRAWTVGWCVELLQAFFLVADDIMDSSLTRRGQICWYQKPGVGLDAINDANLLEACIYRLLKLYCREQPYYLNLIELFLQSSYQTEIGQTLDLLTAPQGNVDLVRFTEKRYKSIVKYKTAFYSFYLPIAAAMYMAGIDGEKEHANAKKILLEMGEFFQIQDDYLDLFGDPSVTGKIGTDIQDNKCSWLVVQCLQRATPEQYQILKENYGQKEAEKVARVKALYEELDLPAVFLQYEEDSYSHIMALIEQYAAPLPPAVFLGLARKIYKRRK
Nature of the data set: Inhibition of recombinant human N-terminal His6-tagged FPPS assessed as reduction in pyrophosphate release using GPP as substrate upto 200 uM incubated for 30 mins followed by substrate addition by PPiLight detection reagent based luminescence assay. Conditions: 0.5 h; call rule not given here.

The nature of data set [2]: Inhibition of recombinant Plasmodium falciparum N-terminal His6-tagged GGPPS expressed in Escherichia coli expression system assessed as reduction in pyrophosphate release using GPP as substrate incubated for 30 mins followed by substrate addition by PPiLight detection reagent based luminescence assay.
For data set [3], the target named is T2, Geranylgeranyl pyrophosphate synthase (Homo sapiens, UniProt O95749).
T2 sequence (O95749 whole entry): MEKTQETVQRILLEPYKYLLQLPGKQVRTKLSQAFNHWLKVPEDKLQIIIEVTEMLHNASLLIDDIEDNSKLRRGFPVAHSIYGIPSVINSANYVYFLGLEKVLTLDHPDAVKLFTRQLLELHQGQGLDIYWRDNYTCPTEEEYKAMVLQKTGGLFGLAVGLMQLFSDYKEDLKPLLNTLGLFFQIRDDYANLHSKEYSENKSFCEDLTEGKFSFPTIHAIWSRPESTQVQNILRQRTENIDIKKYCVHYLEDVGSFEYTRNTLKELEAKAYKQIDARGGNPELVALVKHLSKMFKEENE
Nature of the data set: Inhibition of recombinant human N-terminal His6-tagged GGPPS assessed as reduction in pyrophosphate release using GPP as substrate upto 200 uM incubated for 30 mins followed by substrate addition by PPiLight detection reagent based luminescence assay. Conditions: 0.5 h.

By IC50 is commonly meant the point on the concentration scale where inhibition reaches its midpoint. Take `O=C(NCCCN1CCC(F)CC1)c1cnc(-c2ccccc2)s1`: the “inhibition (INH)” value in data set [1] and in data set [3] was “Not Active” each time. Also, the IC50 in data set [2] worked out at 2790 nM.

As to `O=C(NCCCN1CCCCCC1)c1ncc(-c2ccccc2)s1`, the “inhibition (INH)” value in data set [1] and in data set [3] was “Not Active” throughout. Moreover, the IC50 in data set [2] is 960 nM.

For the molecule `O=C(NCCCN1CCCCCC1)c1nnc(-c2ccccc2)o1`, the “inhibition (INH)” value in data set [1] and in data set [3] was “Not Active” each time. Also, the IC50 in data set [2] turned out to be 8120 nM.

As to `COC1CCN(CCCNC(=O)c2cnc(-c3ccccc3)s2)CC1`, the “inhibition (INH)” value in data set [1] and in data set [3] was “Not Active” in each case. In data set [2], the IC50 came out at 6060 nM.

Regarding `O=C(CCCN1CCCCCC1)Nc1cnc(-c2ccccc2F)s1`, the “inhibition (INH)” value in data set [1] and in data set [3] was “Not Active” throughout. Further, the IC50 in data set [2] is 950 nM.

`Cc1nc(C(=O)NCCCN2CCCCCC2)sc1-c1ccccc1`: the “inhibition (INH)” value in data set [1] and in data set [3] was “Not Active” each time. For the same molecule, the IC50 in data set [2] was 1030 nM.

As to `O=C(NCCCN1CCCCCC1=O)c1cnc(-c2ccccc2)s1`, the “inhibition (INH)” value in data set [1] and in data set [3] was “Not Active” in each case. Also, the IC50 in data set [2] was more than 10000 nM.

`O=C(NCCCN1CCCCCC1)c1cc(-c2ccccc2)ccn1`: the “inhibition (INH)” value in data set [1] and in data set [3] was “Not Active” throughout. Besides, the IC50 in data set [2] is 6080 nM.

As to `CN(C)CCCNC(=O)c1cnc(-c2ccccc2)s1`, the “inhibition (INH)” value in data set [1] and in data set [3] was “Not Active” throughout. Moreover, the IC50 in data set [2] was found to be 6000 nM.

Take `Cc1nc(-c2ccccc2)sc1C(=O)NCCCN1CCCCCC1`: the “inhibition (INH)” value in data set [1] and in data set [3] was “Not Active” throughout. For the same molecule, in data set [2], the IC50 came out at 3790 nM.

`Cn1c(-c2ccccc2)cnc1C(=O)NCCCN1CCCCCC1`: the “inhibition (INH)” value in data set [1] and in data set [3] was “Not Active” each time. In addition, the IC50 in data set [2] was determined as 13000 nM.

On to `O=C(NCCCN1CCCCCC1)c1cc(-c2ccccc2)on1`, for which the “inhibition (INH)” value in data set [1] and in data set [3] was “Not Active” throughout. The IC50 in data set [2] came out at 1800 nM.

Regarding `O=C(NCCCN1CCCCCC1)c1cc(-c2ccccc2)cs1`, the “inhibition (INH)” value in data set [1] and in data set [3] was “Not Active” in each case. Moreover, in data set [2], the IC50 amounted to 2480 nM.

Turning to `O=C(NCCCN1CCCCC1)c1cnc(-c2ccccc2)s1`, the “inhibition (INH)” value in data set [1] and in data set [3] was “Not Active” each time. In addition, the IC50 in data set [2] came to 2150 nM.

Take `CC1CCCN1CCCNC(=O)c1cnc(-c2ccccc2)s1` (stereo not drawn): the “inhibition (INH)” value in data set [1] and in data set [3] was “Not Active” each time. Besides, in data set [2], the IC50 is more than 10000 nM.

`O=C(NCCCN1CCCC1)c1cnc(-c2ccccc2)s1`: the “inhibition (INH)” value in data set [1] and in data set [3] was “Not Active” in each case. Besides, in data set [2], the IC50 was 3100 nM.

Turning to `CC1CCN(CCCNC(=O)c2cnc(-c3ccccc3)s2)C1` (stereo not drawn), the “inhibition (INH)” value in data set [1] and in data set [3] was “Not Active” throughout. In data set [2], the IC50 stood at 3150 nM.

Take `O=C(NCCCN1CCOCC1)c1cnc(-c2ccccc2)s1`: the “inhibition (INH)” value in data set [1] and in data set [3] was “Not Active” each time. Besides, in data set [2], the IC50 was 12000 nM.

For `O=C(CCCN1CCCCCC1)Nc1cnc(-c2ccccc2)s1`, the “inhibition (INH)” value in data set [1] and in data set [3] was “Not Active” in each case. Moreover, the IC50 in data set [2] was 1830 nM.

With `O=C(NCCCN1CCCCCC1)c1ncc(-c2ccccc2)o1`, the “inhibition (INH)” value in data set [1] and in data set [3] was “Not Active” throughout. Besides, the IC50 in data set [2] was found to be 2380 nM.

Take `O=C(NCCCN1CCCCCC1)c1cnc(-c2ccccc2)s1`: the “inhibition (INH)” value in data set [1] and in data set [3] was “Not Active” in each case. Besides, the IC50 in data set [2] is 800 nM.

Values taken from ChEMBL document CHEMBL4814020, “Nonbisphosphonate inhibitors of Plasmodium falciparum FPPS/GGPPS” (Bioorg Med Chem Lett, 2021).
